Target: ROMK (Kir1.1) channel (Homo sapiens (Human), UniProt P48048)
Assay: Thallium Flux Assay
Assay type: cell-based
Description: A Thallium Flux Assay was performed on each of the final product compounds of the Examples. This assay has been described previously; see, e.g., PCT Published Application WO 2013/062900.

ROMK (Kir1.1) channel, sequence (P48048 whole entry): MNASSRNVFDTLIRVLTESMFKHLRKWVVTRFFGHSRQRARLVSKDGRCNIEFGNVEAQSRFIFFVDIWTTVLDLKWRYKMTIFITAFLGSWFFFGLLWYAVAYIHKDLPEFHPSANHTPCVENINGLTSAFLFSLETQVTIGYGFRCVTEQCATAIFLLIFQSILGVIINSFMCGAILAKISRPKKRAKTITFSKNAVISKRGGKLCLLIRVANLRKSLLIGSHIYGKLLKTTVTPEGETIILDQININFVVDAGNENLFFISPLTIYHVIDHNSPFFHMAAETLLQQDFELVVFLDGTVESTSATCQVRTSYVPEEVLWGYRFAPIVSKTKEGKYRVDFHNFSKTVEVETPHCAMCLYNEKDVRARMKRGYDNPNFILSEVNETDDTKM

**Q.** For `CC1=C(N2CC[C@]3(CC[C@@H](N[C@H](C)c4ccc5c(c4)Cn4nnnc4-5)CC3)C2=O)COC1=O` [Example 30, (5R,8r)-2-(4-methyl-5-oxo-2,5-dihydrofuran-3-yl)-8-{[(1R)-1-(5H-tetrazolo[5,1-a]isoindol-7-yl)ethyl]amino}-2-azaspiro[4.5]decan-1-one], which IC50 is on record?
**A.** 150 nM

**Q.** Which IC50 does the source give for `C[C@H]1C[C@]2(CC[C@H](NCc3ccc4c(c3)Cn3nnnc3-4)CC2)C(=O)N1C1=CC(=O)OC1` [Example 62, (3S,5s,8R)-8-(((5H-tetrazolo[5,1-a]isoindol-7-yl)methyl)amino)-3-methyl-2-(5-oxo-2,5-dihydrofuran-3-yl)-2-azaspiro[4.5]decan-1-one] here?
**A.** 20 nM

**Q.** For `CC1=C(N2CC[C@]3(CC[C@H](NCc4ccc5c(c4C)COC5=O)CC3)C2=O)COC1=O` [Example 4, (5s,8s)-8-(((4-methyl-1-oxo-1,3-dihydroisobenzofuran-5-yl)methyl)amino)-2-(4-methyl-5-oxo-2,5-dihydrofuran-3-yl)-2-azaspiro[4.5]decan-1-one], which IC50 is on record?
**A.** 350 nM

**Q.** With `CC1=C(N2CC[C@]3(CC[C@H](N(C)C[C@H](O)c4ccc5c(c4C)COC5=O)CC3)C2=O)COC1=O` [Example 123] as the compound, how does the IC50 read?
**A.** 77 nM

**Q.** How did the IC50 turn out when `CC1=C(N2CC[C@]3(CC[C@H](NCCc4ccc5c(c4)COC5=O)CC3)C2=O)COC1=O` [Example 3, (5s,8s)-2-(4-methyl-5-oxo-2,5-dihydrofuran-3-yl)-8-{[2-(1-oxo-1,3-dihydro-2-benzofuran-5-yl)ethyl]amino}-2-azaspiro[4.5]decan-1-one] was run?
**A.** 200 nM

**Q.** With `CC1=C(N2CC[C@]3(CC[C@@H](N[C@H](C)c4ccc(-n5cnnn5)nc4)CC3)C2=O)COC1=O` [Example 10, (5R,8r)-8-(((R)-1-(6-(1H-tetrazol-1-yl)pyridin-3-yl)ethyl)amino)-2-(4-methyl-5-oxo-2,5-dihydrofuran-3-yl)-2-azaspiro[4.5]decan-1-one] as the compound, how does the IC50 read?
**A.** 18 nM

**Q.** Which IC50 does the source give for `CC1=C(N2CC[C@]3(CC[C@@H](NC[C@H](O)c4ccc5c(c4C)COC5=O)CC3)C2=O)COC1=O` [Example 78, (5r,8r)-8-(((R)-2-hydroxy-2-(4-methyl-1-oxo-1,3-dihydroisobenzofuran-5-yl)ethyl)amino)-2-(4-methyl-5-oxo-2,5-dihydrofuran-3-yl)-2-azaspiro[4.5]decan-1-one] here?
**A.** 210 nM

**Q.** Which IC50 does the source give for `CC1=C(N2CC[C@]3(CC[C@@H](NCc4cnc5c(c4)Cn4nnnc4-5)CC3)C2=O)COC1=O` [Example 52, (5r,8r)-8-(((8H-tetrazolo[1′,5′:1,2]pyrrolo[3,4-b]pyridin-6-yl)methyl)amino)-2-(4-methyl-5-oxo-2,5-dihydrofuran-3-yl)-2-azaspiro[4.5]decan-1-one] here?
**A.** 160 nM

**Q.** For `CC1=C(N2CC[C@]3(CC[C@H](N(C)[C@H](C)c4ccc(-n5cnnn5)nc4)CC3)C2=O)COC1=O` [Example 93], which IC50 is on record?
**A.** 510 nM

**Q.** For `CC1=C(N2CC[C@]3(CC[C@H](N(CCO)Cc4ccc(-n5cnnn5)cn4)CC3)C2=O)COC1=O` [Example 136], which IC50 is on record?
**A.** 160 nM

**Q.** How did the IC50 turn out when `CC1=C(N2CC[C@]3(CC[C@@H](N(C)[C@@H](C)c4ccc(-n5cnnn5)nc4)CC3)C2=O)COC1=O` [Example 95] was run?
**A.** 24 nM

**Q.** `CC1=C(N2CC[C@]3(CC[C@@H](NCc4nnc(-n5cnnn5)cc4C)CC3)C2=O)COC1=O` [Example 12, (5r,8r)-2-(4-methyl-5-oxo-2,5-dihydrofuran-3-yl)-8-({[4-methyl-6-(1H-tetrazol-1-yl)pyridazin-3-yl]methyl}amino)-2-azaspiro[4.5]decan-1-one] was tested. Which IC50 did it give?
**A.** 8.3 nM

**Q.** How did the IC50 turn out when `CC1=C(N2CC[C@]3(CC[C@@H](NCc4ccc(-n5cnnn5)nn4)CC3)C2=O)COC1=O` [Example 1, (5r,8r)-2-(4-methyl-5-oxo-2,5-dihydrofuran-3-yl)-8-({[6-(1H-tetrazol-1-yl)pyridazin-3-yl]methyl}amino)-2-azaspiro[4.5]decan-1-one] was run?
**A.** 10 nM

**Q.** How did the IC50 turn out when `CC1=C(N2CC[C@]3(CC[C@@H](NCc4ccc5c(c4)C(C)n4nnnc4-5)CC3)C2=O)COC1=O` (some centres unmarked) [Example 53, (5r,8r)-2-(4-methyl-5-oxo-2,5-dihydrofuran-3-yl)-8-(((5-methyl-5H-tetrazolo[5,1-a]isoindol-7-yl)methyl)amino)-2-azaspiro[4.5]decan-1-one] was run?
**A.** 19 nM
